Laboratory results: patent US6956030B2, “Use of mometasone furoate for treating upper airway diseases” (Schering Corporation, priority 1994, dated 2005)
Like-named read-outs stand apart in the source and are kept apart here.

What was measured:
plasma cortisol = assay: Phase I rising single-dose study, aqueous nasal spray suspension, 24-hour plasma cortisol; type: in vivo, healthy male volunteers; details: intranasal single doses 1000, 2000 and 4000 mcg at 11 pm
Method: Several Phase I studies have been completed using the aqueous nasal spray suspension formulation of mometasone furoate monohydrate. In a randomized, third party-blinded, placebo-controlled rising single-dose safety and tolerance study, the aqueous nasal spray suspension formulation was administered to eight healthy male volunteers. Doses were administered at 11 pm, and plasma cortisol concentrations were measured during the following 24-hour period.

cortisol secretion = assay: Multiple dose 28-day study, aqueous nasal spray, cortisol secretion; type: in vivo, normal male volunteers; details: intranasal 400 or 1600 mcg/day, 28 days
Source text: In a follow-up multiple dose study, 48 normal male volunteers were empaneled in a randomized, third party-blinded, placebo and active-controlled parallel group study. Twelve volunteers in each of four groups received one of the following treatments for 28 days: A) Intranasal aqueous nasal spray suspension formulation of mometasone furoate monohydrate, 400 mcg/day; B) Intranasal aqueous nasal spray suspension formulation of mometasone furoate monohydrate, 1600 mcg/day; C) Intranasal placebo; D) Oral prednisone, 10 mg/day. All treatments were administered as once daily dosing in the morning.

[1] = HPLC/radio-flow metabolite profiling of plasma, urine and fecal extracts after ^3H-MF; type: in vivo, normal healthy male volunteers
Source text: The substantial minimization of the systemic effect of mometasone furoate administered intranasally or by oral inhalation has been measured by High Performance Liquid Chromatography (HPLC) metabolite profiling of plasma radioactivity of mometasone furoate, its substantially complete (>98%) first-pass metabolism in the liver and by a minimal reduction in cortisol secretion levels.
(§1) Plasma, urine, expired air filters, Respirgard and fecal samples were collected and assayed for radioactivity content. The limit of quantitation (LOQ) for plasma radioactivity ranged from 0.103 to 0.138 ng eq/ml., except for the nasal spray treatment where the LOQ was 0.025 ng eq/ml. Selected plasma, urine and fecal samples were analyzed for metabolite profiles.
Selected plasma, urine and fecal extracts were analyzed by high performance liquid chromatography (HPLC) with radio-flow monitoring to determine metabolite profiles. […] Approximately 1.5% of the 3 hr. plasma radioactivity was associated with parent drug indicating extensive first past metabolism and rapid inactivation by the liver. In contrast, following intravenous administration, approximately 39% of the 3 hr. plasma radioactivity was associated with parent drug. Approximately 12% and 33% of the 3 hr. plasma radioactivity was associated with parent drug following administration of the MDI and Gentlehaler, respectively. In general, the plasma concentrations of radioactivity following the nasal and oral suspension routes of administration were too low for metabolite profiling.
Hydrolysis of plasma and urine was performed with an enzyme preparation containing both β-glucuronidase and aryl sulfatase. These experiments yielded modest changes in the HPLC metabolite profiles that were consistent with the hydrolytic release of conjugated metabolites.

[2] = Drug metabolism/clinical pharmacology study: absorption and excretion of total radioactivity after ^3H-MF by various routes; type: in vivo, normal healthy male volunteers
Method: In addition, a single-dose absorption, excretion and metabolism study using 200 mcg of ^3H-mometasone furoate as the nasal spray formulation was conducted in 6 normal male volunteers. When systemic absorption (based on urinary excretion) was compared to an intravenously administered dose of ^3H-mometasone furoate, it was 8%.
A drug metabolism and clinical pharmacology study was conducted by administering (by various routes) tritium-labeled mometasone furoate (“^3H-MF”) to 6 groups of 6 normal male volunteers in each group. Blood and urine samples were collected for measurement of total drug (including metabolites).
The objectives of these studies in male volunteers were to determine the absorption, metabolism and excretion of ^3H-labeled mometasone furoate (“^3H-MF”) following administration by oral swallow as a solution and as an aqueous suspension of the monohydrate, by oral inhalation as a suspension from a standard metered dose inhaler (MDI) and from a metered dose inhaler containing a spacer device (Gentlehaler), by nasal inhalation as an aqueous suspension of the mometasone furoate monohydrate from a nasal spray unit and by intravenous injection as a solution.
Thirty-six (n=6 per treatment group) normal healthy male volunteers between the ages of 19 and 40 yr. (average 29 yr.) having weights in accordance with current actuarial tables (+10%) were enrolled in these single dose studies. All subjects were determined to be in good health by their medical history, physical examinations, clinical and laboratory tests.
as §1
Pharmacokinetics—The mean (n=6) plasma concentrations of total radioactivity are illustrated in Summary FIG. 1 and the mean (n=6) pharmacokinetic parameters derived from total plasma radioactivity are presented in Table 2.

[3] = tested on: patients with mild asthma

In the case of `C[C@@H]1C[C@H]2[C@@H]3CCC4=CC(=O)C=C[C@]4(C)[C@@]3(Cl)[C@@H](O)C[C@]2(C)[C@@]1(OC(=O)c1ccco1)C(=O)CCl` [mometasone furoate], the “effect on 24-hour area under the curve plasma cortisol profile (AUC 0-24) compared to placebo” value (plasma cortisol) is reported as “did not significantly affect”, the “cortisol secretion compared to placebo” value (cortisol secretion) is reported as “Neither of the 2 doses of the mometasone furoate aqueous nasal spray formulation were associated with any changes in cortisol secretion” and the tolerability (cortisol secretion) is reported as “well tolerated”. For the same compound, the extent of metabolism ([1]; all routes of administration) was “extensively metabolized”, the “first-pass metabolism in the liver” value ([1]; in vivo) was over 98% and the “detection of parent drug in plasma by metabolite profiling” value ([1]; intravenous injection or oral solution, not after oral or nasal suspensions) was “detectable in plasma by metabolite profiling”. The bioavailability ([1]; male, human, plasma, 1.03 mg/Subject, oral solution, extensive first pass metabolism, read-out: absolute bioavailability of unchanged mometasone furoate) was under 1%, the safety and tolerability ([2]; all dosage forms, single dose) was “safe and well tolerated” and the bioavailability ([2]; male, human, plasma, inhaled or intranasal, 200 ug, nasal spray 200 mcg, single dose, read-out: bioavailability of mometasone furoate) was under 1%. For the same compound, the “parent drug which reaches the bloodstream from the gastrointestinal tract” value ([2]; swallowed as oral suspension or by oral or nasal inhalation) was “less than 1%”, the “FEV1 compared to placebo” value ([3]; 1 mg/day group, day 1) was “statistically significant, clinically meaningful improvement” and the “mean increase in FEV1 versus placebo” value ([3]; 1, 2 and 4 mg/day groups, every time point day 3 to day 28) was “statistically significantly greater than for the placebo group”. For the same compound, the “8 a.m. plasma cortisol” value ([3]; 1000 mcg or 2000 mcg daily, statistically significant compared to placebo) was “small decreases from Baseline on Days 15 and 21”, the “8 a.m. plasma cortisol” value ([3]; 4000 mcg daily, statistically different from placebo Day 3 through Day 28) was “greater decreases in plasma cortisol” and the “increase in FEV1 from Baseline” value ([3]; at a majority of time points) was at least 15%. For the same compound, the “response to ACTH infusion at post-treatment (Day 30)” value ([3]; in vivo) was “significant increases from Baseline in plasma cortisol” and the “pulmonary function measured by FEV1” value ([3]; three treated groups, MDI twice daily) was “clinically meaningful increases in pulmonary function”.
